Here are results for two compounds from patent publication US9346797B1, “2-amino 6-(difluoromethyl)-5,5-difluoro-6-phenyl-3,4,5,6-tetrahydropyridines as BACE1 inhibitors” (H. Lundbeck A/S, priority 2014, dated 2016).

Where two headings read alike, the source gives them in different places.

The series in a line: Bioanalysis of brain and plasma samples (exposure, UPLC-MS/MS). The format is in vivo. The settings on record: male, Sprague Dawley, po, rat, 3 hours post dose; for Kp at 3 h: brain/plasma, read-out: Brain/Plasma ratio; for concentration at 3 h: read-out: Exp. Here is the method: Young adult Male Sprague Dawley rats of approximately 250 g weight were purchased from Charles River and received 0-30 mg/kg of vehicle (10% HP betaCD+1M MeSO4, pH 2.5) or test compounds (dissolved in vehicle) only by oral gavage (p.o). The compounds are dosed at a volume of 5 ml/kg. Cohorts of 5-10 animals were established for each treatment condition.
At T=180 minutes after initial dosing the animals were stunned and decapitated with a guillotine. Trunk-blood was sampled in EDTA coated tubes after decapitation of the animal. The blood was centrifuged at 2200 G at 4° C. for 15 minutes and the plasma was collected and frozen at −80° C. The blood was aliquoted for Aβ ELISA and DMPK analysis Immediately following sacrifice, the brain was extracted and split into 2 halves. The right hemibrains were snap frozen on dry ice and stored at −80° C. The left half was dissected; with the front forebrain taken for Aβ ELISA and the remainder used for DMPK analysis. These samples were also snap frozen on dry ice and stored at −80° C. until use for analysis.
TC was determined in plasma and brain homogenate using UltraPerformance LC® (UPLC®) chromatography followed by tandem-MS (MS/MS) detection.
Brain homogenate was prepared by homogenizing the brain 1:4 (v/v) with water:2-propanol:DMSO (50:30:20 v/v/v) followed by centrifugation and collection of the supernatant. Calibration standards and QC samples were prepared using a Hamilton robot. 150 μL of ISTD in acetonitrile (1 ng/mL ISTD) was added to 25 μL of calibration standards, QC samples and test samples (plasma and brain homogenate) using a Biomek robot. After centrifugation (6200 g, 4° C., 20 min) 100 μL supernatant from each sample was transferred to a new plate and mixed with 100 μL water with 0.1% formic acid using a Biomek robot (method file InVivo transfer). After a quick centrifugation (6200 g, 4° C., 5 min) the samples were placed in the auto-sampler.
MS/MS detection was done with an Applied Biosystems Sciex API 4000 instrument in positive-ion electrospray ionisation mode. TC and ISTD were detected at a parent>daughter mass to charge ratio (m/z). Nitrogen was used for the nebulizer and collision gases. The peak area correlated linearly with the plasma and brain concentration of the analytes in the range of 1.00-1000 ng/mL plasma and 5.00-5000 ng/g brain (corrected for dilution). If the plasma/brain sample drug concentration was above 1000 ng/mL or 5000 ng/g, the sample was diluted appropriately in blank plasma/blank brain homogenate before analysis. […]

With `COc1cnc(C(=O)Nc2ccc(F)c([C@@]3(C(F)F)N=C(N)CCC3(F)F)c2)cn1` [Compound 3, (S)—N-(3-(6-amino-2-(difluoromethyl)-3,3-difluoro-2,3,4,5-tetrahydropyridin-2-yl)-4-fluorophenyl)-5-methoxypyrazine-2-carboxamide], the Kp at 3 h came out at 0.3 (10 mg/kg p.o.) and 0.32 (30 mg/kg p.o.). Also, the concentration at 3 h was 511 ng/g (brain, 10 mg/kg p.o.); 2280 ng/g (brain, 30 mg/kg p.o.); 1680 ng/g (plasma, 10 mg/kg p.o.); 7060 ng/g (plasma, 30 mg/kg p.o.).
In the case of `COc1ccc(C(=O)Nc2ccc(F)c([C@@]3(C(F)F)N=C(N)CCC3(F)F)c2)nc1` [Compound 5, (S)—N-(3-(6-amino-2-(difluoromethyl)-3,3-difluoro-2,3,4,5-tetrahydropyridin-2-yl)-4-fluorophenyl)-5-methoxypicolinamide], the Kp at 3 h was found to be 0.28 (10 mg/kg p.o.) and 0.29 (30 mg/kg p.o.). For the same compound, the concentration at 3 h is, setting by setting: (brain, 10 mg/kg p.o.) 187 ng/g; (brain, 30 mg/kg p.o.) 959 ng/g; (plasma, 10 mg/kg p.o.) 660 ng/g; (plasma, 30 mg/kg p.o.) 3350 ng/g.
